Assay results as given in patent US20060135403A1, “Therapeutic formulations for the treatment of beta-amyloid related diseases” (priority 2002, published 2006).
Where a name gives a salt, the structure may show the parent alone. Read-outs that look alike come from different tables or passages of the source.

Legend:
Aβ1-40 = target: T1, Aβ1-40 (Homo sapiens, UniProt P05067); test: Mass spectroscopy (MS) binding assay; parameters: key: “+++” indicates strong binding; “++” indicates moderate binding; “+” indicates weak binding; “−” indicates no detectable binding; settings: 200 μM test compound, 20 μM solubilized Aβ40, 20% ethanol, pH 7.4
T1 construct: 20 μM of solubilized Aβ40
Protocol: Test compounds were purchased from commercial sources or synthesized and screened by mass spectroscopy (“MS”) assays. The MS assay gives data on the ability of compounds to bind to an amyloid.
In the mass spectroscopy (“MS”) assay, samples were prepared as aqueous solutions containing 20% ethanol, 200 μM of a test compound and 20 μM of solubilized Aβ40. The pH value of each sample was adjusted to 7.4 (±0.2) by addition of 0.1% aqueous sodium hydroxide. The solutions were then analyzed by electrospray ionization mass spectroscopy using a Waters ZQ 4000 mass spectrometer. Samples were introduced by direct infusion at a flow-rate of […] within 2 hours after sample preparation. The source temperature was kept at 70° C. and the cone voltage was 20 V for all the analysis. Data were processed using Masslynx 3.5 software. The MS assay gives data on the ability of compounds to bind to Aβ, whereas the ThT, EM and CD assays give data on inhibition of fibrillogenesis. “+++” indicates strong binding; “++” indicates moderate binding; “+” indicates weak binding; “−” indicates no detectable binding; and entries left blank were not determined.

Aβ [1] = settings: cited from earlier work
Aβ [2] = settings: PDAPP, cited from earlier work
Aβ [3] = settings: cited from earlier work; remark: listed apart in the source
Target sequence in this assay (P05067 672-711 limits assumed): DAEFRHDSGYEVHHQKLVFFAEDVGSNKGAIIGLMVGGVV

Aβ [4] = settings: TgCRND8, IP; cited from earlier work
Aβ [5] = target: T2, Aβ (Homo sapiens, UniProt P05067); settings: TgAPPswe, IP; cited from earlier work
T2 construct: the amyloid-β peptide (Aβ), a 39-43 amino acid protein that is produced through cleavage of the β-amyloid precursor protein (APP); host or cells: brains of transgenic mice (PDAPP, Tg2576, Tg2576+PS1, TgCRND8, TgAPPswe)

T1 sequence (P05067 672-711 limits assumed): as above

| Compound | MS Binding Aβ1-40 (Aβ1-40) | also measured |
| --- | --- | --- |
| COc1cc(CNCCCS(=O)(=O)O)cc(OC)c1 [BA, 3-(3,5-dimethoxybenzylamino)-1-propanesulfonic acid] | +++ |  |
| O=S(=O)(O)CCCNCc1ccc2c(c1)OCO2 [AW, 3-[((1,3-benzodioxol-5-yl)methyl)amino]-1-propanesulfonic acid] | ++ |  |
| O=S(=O)([O-])CCCC[n+]1ccc(C2CC=CCC2)cc1 (centres unmarked) [T, 4-(4-cyclohex-3-enylpyridyl) butanesulfonic acid, inner salt] | + |  |
| CC(C)Cc1ccc(C(C)C(=O)NCCCS(=O)(=O)[O-])cc1.[Na+] (centres unmarked) [AL, 3-{[2-(4-isobutylphenyl)propanoyl]amino}-1-propanesulfonic acid, sodium salt] | ++ |  |
| CC(C)(C)NCCCS(=O)(=O)O [BX, 3-(t-butyl)amino-1-propanesulfonic acid] | +++ |  |
| O=S(=O)(O)CCCNCCc1c[nH]c2ccccc12 [BT, 3-{[2-(3-indolyl)ethyl]-amino}-1-propanesulfonic acid] | +++ |  |
| CCCC(CO)NCCCS(=O)(=O)O (racemic) [CA, 3-[(dl)-1-hydroxy-2-pentyl]amino-1-propanesulfonic acid] | +++ |  |
| O=C(NCCCCS(=O)(=O)[O-])OCc1ccccc1.[Na+] [AD, N-benzyloxycarbonyl-4-amino-1-butanesulfonic acid sodium salt monohydrate] | + |  |
| K6Aβ1-30: Aβ peptide immunogen of Sigurdsson 2001 |  | Change in Cerebral Levels: Amyloid Burden (Aβ [1]; Tg2576, SC): −85%; Change in Cerebral Levels: Aβ, total Aβ levels (Aβ [1]; Tg2576, SC): Total: −55% |
| Aβ40: Aβ40 peptide given orally or nasally as immunogen (Weiner 2000) |  | Change in Cerebral Levels: Amyloid Burden (Aβ [2]; nasal): −60%; Change in Cerebral Levels: Aβ, total Aβ levels (Aβ [2]; nasal): Total: −50%; Change in Cerebral Levels: Amyloid Burden (Aβ [2]; oral): 0%; Change in Cerebral Levels: Aβ, total Aβ levels (Aβ [2]; oral): Total: 0% |
| O=C(NCCCS(=O)(=O)O)NC(c1ccccc1)c1ccccc1 [AF, 3-{[(benzhydrylamino)carbonyl]amino}-1-propanesulfanic acid] | + |  |
| O=S(=O)(O)CCCNC1CCCc2ccccc21 (centres unmarked) [BU, 3-(1,2,3,4-tetrahydro-1-naphthylamino)-1-propanesulfonic acid] | +++ |  |
| COc1cccc(CNCCCS(=O)(=O)O)c1OC [AZ, 3-(2,3-dimethoxybenzylamino)-1-propanesulfonic acid] | ++ |  |
| N=C(N)SCCCS(=O)(=O)O [CP, 3-(amidinothio)-1-propanesulfonic acid] | + |  |
| COc1ccc(CNCCCS(=O)(=O)O)cc1OC [AX, 3-(3,4-dimethoxybenzylamino)-1-propanesulfonic acid] | +++ |  |
| NCCNS(=O)(=O)[O-].[Na+] [BI] | + |  |
| O=S(=O)([O-])CCCNC(=S)NCc1ccccc1.[Na+] [AM, 3-{[(benzylamino)carbonothioyl]amino}-1-propanesulfonic acid sodium salt] | + |  |

| Compound | MS Binding Aβ1-40 (Aβ1-40) | also measured |
| --- | --- | --- |
| O=S(=O)(O)CCCNC12CC3CC(CC(C3)C1)C2 [BW, 3-(1-adamantyl)amino-1-propanesulfonic acid] | +++ |  |
| Cholyl-LVFFA-OH |  | anti-fibrillogenic activity (Aβ [3]): can act as an anti-fibrillogenic agent |
| COc1ccc(CNCCCS(=O)(=O)O)c(OC)c1 [BB, 3-(2,4-dimethoxybenzylamino)-1-propanesulfonic acid] | +++ |  |
| fAβ42: fibrillar Aβ42 used for active immunization |  | Change in Cerebral Levels: Amyloid Burden (Aβ [2]; IP): −95%; Change in Cerebral Levels: Aβ, total Aβ levels (Aβ [2]; IP): Total: −80%; Change in Cerebral Levels: Aβ (Aβ [1]; Tg2576, IP, Aβ species not specified): −70%; Change in Cerebral Levels: Amyloid Burden (Aβ [1]; Tg2576, IP): −85%; Change in Cerebral Levels: Amyloid Burden (Aβ [1]; Tg2576, SC): −80%; Change in Cerebral Levels: Amyloid Burden (Aβ [4]): −50%; Change in Cerebral Levels: Aβ, levels of Aβ40 (Aβ [5]): 40: +100%;; Change in Cerebral Levels: Aβ, levels of Aβ42 (Aβ [5]): 42: 0% |
| O=C(NCC(O)CS(=O)(=O)[O-])OCc1ccccc1.[Na+] (centres unmarked) [AC, N-benzyloxycarbonyl-3-amino-2-hydroxy-1-propanesulfonic acid sodium salt monohydrate] | + |  |
| O=C(Cc1ccccc1)NCCCS(=O)(=O)[O-].[Na+] [AG, 3-[(phenylacetyl)amino]-1-propanesulfonic acid, sodium salt] | + |  |
| O=S(=O)(O)CCCNC1C2CC3CC(C2)CC1C3 (centres unmarked) [BZ, 3-(2-adamantyl)amino-1-propanesulfonic acid] | +++ |  |
| C[n+]1cccc(C(=O)NCCCS(=O)(=O)[O-])c1 [AN, 3-((N-methylnicotlnoyl)amino)-1-propanesulfonic acid, inner salt] | − |  |
| CCNCCCS(=O)(=O)O [BV, 3-(ethylamino)-1-propanesulfonic acid] | +++ |  |
| COc1cc(CNCCCS(=O)(=O)O)cc(OC)c1OC [AY, 3-(3,4,5-trimethoxybenzylamino)-1-propanesulfonic acid] | ++ |  |
| O=S(=O)(O)CCCN1CC=C(CCCc2ccccc2)CC1 [D, 4-(3-phenylpropyl)-1-sulfopropyl-2,3,6-tetrahydropyridine] | + |  |
| NCCCCS(=O)(=O)O [CB, 4-amino-1-butanesulfonic acid] | ++ |  |
| O=C(NCCCS(=O)(=O)[O-])OCc1ccccc1.[Na+] [AE, N-benzyloxycarbonyl-3-amino-1-propanesulfonic acid sodium salt monohydrate] | + |  |
| O=C(NCCCS(=O)(=O)[O-])NCc1ccccc1.[Na+] [AH, 3-{[(benzylamino)carbonyl]amino}-1-propanesulfonic acid, sodium salt] | + |  |
| O=S(=O)(O)CCCNCc1ccc(O)c(O)c1 [BC, 3-(3,4-dihydroxybenzylamino)-1-propanesulfonic acid] | + |  |
| O=S(=O)(O)CCCNC1CC2CCC1C2 (centres unmarked) [BY, 3-(2-norbornyl)amino-1-propanesulfonic acid] | +++ |  |
